Measurements published in ChEMBL document CHEMBL4616634, “4β-Hydroxywithanolide E from Goldenberry (Whole Fruits of Physalis peruviana L.) as a Promising Agent against Chronic Obstructive Pulmonary Disease” (J Nat Prod, 2020).
Active and inactive are the calls of the source.

How the values were obtained:
Assay type in all cases: functional, organism-based
Mus musculus [1] = assay: Antiinflammatory activity in C57BL/6 mouse model of CS-induced pulmonary injury assessed as reduction in 8-oxo-dG in lungs at 50 mg/kg, ip for 5 days by ELISA
Mus musculus [2] = assay: Antiinflammatory activity in C57BL/6 mouse model of CS-induced pulmonary injury assessed as reduction in thickening of the alveolar septa in lungs at 50 mg/kg, ip for 5 days by hematoxylin and eosin staining based fluorescence microscopic analysis
Mus musculus [3] = assay: Antiinflammatory activity in C57BL/6 mouse model of CS-induced pulmonary injury assessed as reduction in hyperplasia of pneumo-cytes in lungs at 50 mg/kg, ip for 5 days by hematoxylin and eosin staining based fluorescence microscopic analysis
Mus musculus [4] = assay: Antiinflammatory activity in C57BL/6 mouse model of CS-induced pulmonary injury assessed as reduction in goblet cell hyperplasia in peribronchial in lungs at 50 mg/kg, ip for 5 days by hematoxylin and eosin staining based fluorescence microscopic analysis
Mus musculus [5] = assay: Antiinflammatory activity in C57BL/6 mouse model of CS-induced pulmonary injury assessed as reduction in goblet cell hyperplasia in perivascular areas in lungs at 50 mg/kg, ip for 5 days by hematoxylin and eosin staining based fluorescence microscopic analysis
Mus musculus [6] = assay: Antiinflammatory activity in C57BL/6 mouse model of CS-induced pulmonary injury assessed as reduction in distinct infiltration of leukocytes in lungs at 50 mg/kg, ip for 5 days by hematoxylin and eosin staining based fluorescence microscopic analysis
Mus musculus [7] = assay: Antiinflammatory activity in C57BL/6 mouse model of CS-induced pulmonary injury assessed as reduction in thickening of the alveolar septa in lungs at 1 mg/kg, ip for 5 days by hematoxylin and eosin staining based fluorescence microscopic analysis
Mus musculus [8] = assay: Antiinflammatory activity in C57BL/6 mouse model of CS-induced pulmonary injury assessed as reduction in goblet cell hyperplasia in perivascular areas in lungs at 1 mg/kg, ip for 5 days by hematoxylin and eosin staining based fluorescence microscopic analysis
Mus musculus [9] = assay: Antiinflammatory activity in C57BL/6 mouse model of CS-induced pulmonary injury assessed as reduction in 8-oxo-dG in lungs at 1 mg/kg, ip for 5 days by ELISA
Mus musculus [10] = assay: Antiinflammatory activity in C57BL/6 mouse model of CS-induced pulmonary injury assessed as reduction in hyperplasia of pneumo-cytes in lungs at 1 mg/kg, […] by hematoxylin and eosin staining based fluorescence microscopic analysis
Mus musculus [11] = assay: Antiinflammatory activity in C57BL/6 mouse model of CS-induced pulmonary injury assessed as reduction in goblet cell hyperplasia in peribronchial in lungs at 1 mg/kg, ip for 5 days by hematoxylin and eosin staining based fluorescence microscopic analysis
Mus musculus [12] = assay: Antiinflammatory activity in C57BL/6 mouse model of CS-induced pulmonary injury assessed as reduction in distinct infiltration of leukocytes in lungs at 1 mg/kg, ip for 5 days by hematoxylin and eosin staining based fluorescence microscopic analysis

Measured: Activity

CC(C)(C)c1cc(O)ccc1O
active: Mus musculus [1] | Mus musculus [2] | Mus musculus [3] | Mus musculus [4] | Mus musculus [5] | Mus musculus [6]

C[C@@H]1C[C@H]2[C@@H]3CCC4=CC(=O)C=C[C@]4(C)[C@@]3(F)[C@@H](O)C[C@]2(C)[C@@]1(O)C(=O)CO
active: Mus musculus [7] | Mus musculus [8] | Mus musculus [9] | Mus musculus [10] | Mus musculus [11] | Mus musculus [12]
